{"source": "patent US20160022681A1", "about": "“METHODS OF INCREASING LYMPHATIC TRANSPORT” (UNIVERSITY OF ROCHESTER, priority 2012, published 2016)", "note": "“Also recorded” adds a separate entry of the source. Bridge positions count the residues as written; N and C are the ends. Ends that are not written are not given here."}
{"tested_on": "lymphatic vessels", "test": "near-infrared (NIR) imaging of indocyanine green (ICG) transport after footpad injection", "type": "in vivo", "settings": "mouse, sildenafil 12 mg/kg intraperitoneally, images taken 20 minutes after treatment, versus saline control", "procedure": "To determine if phosphodiesterase (PDE) inhibitors were capable of increasing lymphatic transport, near-infrared (NIR) imaging of indocyanine green ICG) transport was used. ICG (20 μl of 0.1 mg ICG/ml water) was injected into the footpad Of the animal Where it is taken up by the lymphatic system. The extremity was illuminated with near infrared light (generated with a tungsten halogen source) resulting in near infrared fluorescence at a longer wavelength that was recorded with a near-infrared sensitive camera (Prosilica GC1380; Allied Vision Technologies; Stadtroda, Germany). Excitation and emission wavelengths were separated using Semrock filters (IDEX; Lake Forest, Ill.) from the ICG-A filter set. To determine if PDE inhibitors Were capable of increasing lymphatic transport, sildenafil (12 mg/kg), a PDE5 antagonist, was injected intraperitoneally with ICG into the footpad of a mouse. Saline was used a control."}
{"molecule": "CCCc1nn(C)c2c(=O)[nH]c(-c3cc(S(=O)(=O)N4CCN(C)CC4)ccc3OCC)nc12", "note": "[sildenafil]", "ICG uptake into lymphatic vessels / lymphatic system": "increases indocyanine green (ICG) uptake into lymphatic vessels; also recorded: increased ICG uptake into the lymphatic system"}
{"tested_on": "lymphatic vessels", "test": "not given", "settings": "ex vivo studies; cited from earlier work"}
{"molecule": "substance P (RPKPQQFFGLM-NH2; ends and bridges not checked; UniProt P20366 58-68, looked up)", "lymphatic pulsing and/or flow": "increase lymphatic pulsing and/or flow"}
{"molecule": "NC[C@H](O)c1ccc(O)c(O)c1", "note": "[norepinephrine]", "lymphatic pulsing and/or flow": "increase lymphatic pulsing and/or flow"}
{"molecule": "O=S(=O)(O)c1cc(O)ccc1O", "note": "[doxium]", "lymphatic pulsing and/or flow": "increase lymphatic pulsing and/or flow"}
{"molecule": "endothelin-1 (CSCSSLMDKECVYFCHLDIIW; disulfide 1-15, 3-11; ends not checked; UniProt P05305 53-73, looked up)", "lymphatic pulsing and/or flow": "increase lymphatic pulsing and/or flow"}
{"molecule": "hyaluronidase", "lymphatic pulsing and/or flow": "increase lymphatic pulsing and/or flow"}
{"molecule": "CCCCC[C@H](O)/C=C/[C@@H]1[C@@H](C/C=C\\CCCC(=O)O)[C@H]2CO[C@@H]1C2", "note": "[U46619]", "lymphatic pulsing and/or flow": "increase lymphatic pulsing and/or flow"}
